Five molecules from patent US20230226227A1, “PROSTATE SPECIFIC MEMBRANE ANTIGEN (PSMA) LIGANDS AND USES THEREOF” (ADVANCED ACCELERATOR APPLICATIONS (ITALY) SRL, priority 2019, published 2023) can be followed below.

Data set [1] has as its system PC3-PIP (PSMA positive) tumor. Put plainly: In vivo efficacy in PC3-PIP PSMA positive model. Further details: species or system mice. To be noted: single injection of 111 MBq; p<0.001. The protocol:
An efficacy study was conducted in a prostate cancer model using Lu-labelled PSMA-R2).
Mice bearing PC3-PIP (PSMA positive) tumor were injected once with 111 MBq of ^177Lu-PSMA-R2, ^177Lu-PSMA-617, included as reference compound, or with saline (control).
Tumor volume is expressed either as an absolute value (mm^3) or relatively to the volume measured at the time of the first injection.

The subject of data set [2] is PC-3 PSMA positive and PSMA negative tumor xenografts. Put plainly: In vivo distribution in tumor models (PSMA positive PIP and negative Flu xenografts). On the set-up: species or system athymic nude male mice. Conditions: for Salivary glands uptake: 0.5 h post injection; for Kidney uptake / Tumor uptake / Tumor-to-kidney ratio: 1 h post injection. Here is the method:
Athymic nude male mice bearing the PC-3 PSMA positive and PSMA negative tumor xenografts were injected with approximately 4.5 MBq of ^68Ga-PSMA-R2, and subsequently assessed for biodistribution and imaging studies. At 4 time points (30 min, 1 h, 2 h and 4 h) post injection (p.i.), tumor and organ uptake was determined using a gamma-counter. To assess receptor-specificity additional groups of animals were coinjected with an excess of unlabeled PSMA-R2 (40 nmol).
The same study was performed with ^68Ga-PSMA-cpd 2, a comparative compound of the following formula: […]

Data set [3] is described as follows: In vivo distribution in healthy CD-1 mice. On the set-up: species or system CD-1 healthy mice. Here is the method:
In vivo distribution studies were performed in CD-1 healthy mice using Ga-labelled PSMA-R2, which was administered intravenously at a dose of 120-150 µCi (4.44 - 5.55 MBq). At specific time points after intravenous injection, animals (3 or 4/group) were sacrificed, organs collected, weighted and evaluated in a gamma counter.

Data set [4] can be described thus: Plasma protein binding by ultrafiltration, human plasma. The data set is classed as in vitro ADME. Conditions: human plasma. The protocol: (§1) Plasma protein binding of PSMA-R2 and ^175Lu-PSMA-R2 has been determined by ultrafiltration method, after incubation of the compounds in human, mouse, rat and minipig plasma at two different concentrations: 1 and 5 µg/mL.

Data set [5] is described as follows: Plasma protein binding by ultrafiltration, mouse plasma. It counts as in vitro ADME. Here is the method: as §1
A short description of data set [6]: In vitro stability in plasma (human). The data set is classed as in vitro ADME. To be noted: 37° C., after 2 hours. The protocol: Stability of PSMA-R2 ligand was assessed in vitro after incubation with plasma from four different species (mouse, rat, mini-pig and human). PSMA-R2 was incubated at 37° C. in the different matrices, at a final concentration of 10 µg/mL, for 30, 60 and 120 minutes. The samples were analyzed by LC-MS/MS method.

A short description of data set [7]: Plasma protein binding by ultrafiltration, minipig plasma. It counts as in vitro ADME. To be noted: read-out: fu (%) fraction unbound. The protocol:
as §1

Data set [8] is described as follows: Plasma protein binding by ultrafiltration, rat plasma. To be noted: read-out: fu (%) fraction unbound. It counts as in vitro ADME. Here is the method: as §1
Where [9] appears, read: 1 µg/mL, read-out: fu (%) fraction unbound.
The mark [10] stands for this setting: 5 µg/mL, read-out: fu (%) fraction unbound.
The mark [11] stands for this setting: 1 and 5 µg/mL, read-out: Unbound fraction, range over labelled and unlabelled form.

Structures are written as SMILES.

Turning to `O=C([O-])CN1CCN(CC(=O)[O-])CCN(CC(=O)NCC2CCC(C(=O)N[C@@H](Cc3ccc4ccccc4c3)C(=O)NCCCC[C@H](NC(=O)N[C@@H](CCC(=O)O)C(=O)O)C(=O)O)CC2)CCN(CC(=O)[O-])CC1.[177Lu+3]` (stereo partly shown) [^177Lu-PSMA-617, reference compound], in data set [1], the “Absolute tumor volume in comparison to control group” value is reported as “significantly reduced” and the “Relative tumor volume in comparison to control group” value is “significantly reduced”.

As for `O=C(O)CCC(NC(=O)NC(CCCCN(Cc1ccc(Br)cc1)C(=O)CCCCCNC(=O)CN1CCN(CC(=O)O)CCN(CC(=O)O)CCN(CC(=O)O)CC1)C(=O)O)C(=O)O.[68Ga]` (stereo not shown) [^68Ga-PSMA-R2], in data set [2], the Salivary glands uptake is given as 0.81% (0.5 h), the Kidney uptake is reported as 6% (1 h), the Tumor uptake was 29% (1 h) and the Tumor-to-kidney ratio is 5 (1 h). In data set [3] (30 minutes after intravenous injection), this molecule yielded a Liver uptake of 0.74%. The molecule also came in with a Liver uptake in data set [3] (4 hours after intravenous injection) of 0.21%. For the same molecule, in data set [3] (all time-points), the “Radiotracer uptake in remaining organs (intestine, pancreas, muscle, bone)” value is recorded as “Low”. Also, the “Radiotracer uptake in blood, adrenals, lungs, thyroid” value in data set [3] (earliest time-point (30 min), decreased rapidly later) is “slightly high”. Moreover, in data set [3] (intravenous), the “Excretion route (uptake in kidneys and bladder)” value is recorded as “excreted through the renal system”.

`O=C(O)CC[C@H](NC(=O)N[C@@H](CCCCN(Cc1ccc(Br)cc1)C(=O)CCCCNC(=O)CN1CCN(CC(=O)O)CCN(CC(=O)O)CCN(CC(=O)O)CC1)C(=O)O)C(=O)O.[68Ga]` [^68Ga-PSMA-cpd2, reference compound]: in data set [2], the Salivary glands uptake was 0.95% (0.5 h), the Kidney uptake is 13% (1 h), the Tumor uptake is recorded as 36% (1 h) and the Tumor-to-kidney ratio is 3 (1 h).

Take `O=C([O-])CN1CCN(CC(=O)[O-])CCN(CC(=O)NCCCCCC(=O)N(CCCC[C@H](NC(=O)N[C@@H](CCC(=O)O)C(=O)O)C(=O)O)Cc2ccc(Br)cc2)CCN(CC(=O)[O-])CC1.[177Lu+3]` [^177Lu-PSMA-R2]: in data set [1], the “Absolute tumor volume in comparison to control group” value is on record as “significantly reduced” and the “Relative tumor volume in comparison to control group” value was “significantly reduced”.

In the case of `O=C(O)CCC(NC(=O)NC(CCCCN(Cc1ccc(Br)cc1)C(=O)CCCCCNC(=O)CN1CCN(CC(=O)O)CCN(CC(=O)O)CCN(CC(=O)O)CC1)C(=O)O)C(=O)O` (stereo not shown) [PSMA-R2], the fraction unbound at 1 µg/mL in data set [4] (setting [9]) stood at 0.299 ± 0.046; in data set [5] (setting [9]), 0.862 ± 0.111; in data set [7] (1 µg/mL), 0.407 ± 0.043; in data set [8] (1 µg/mL), 0.256 ± 0.018. In addition, the unbound share (fraction unbound) at 5 µg/mL in data set [4] (setting [10]) was determined as 0.23 ± 0.005; in data set [5] (setting [10]), 0.727 ± 0.015; in data set [7] (5 µg/mL), 0.353 ± 0.085; in data set [8] (5 µg/mL), 0.226 ± 0.011. In addition, the figures for the fraction unbound in data set [4] (setting [11]) and in data set [5] (setting [11]) were 0.25 to 0.45 and 0.7 to 0.86, respectively. Further, the recovery at 2 h, 10 µg/mL in data set [6] was found to be 85%.
